Results: paper PMC9982591, “Inflammation‐Controlled Anti‐Inflammatory Hydrogels” (Advanced Science, 2022)
One block for each compound: values may come before it.

What was measured:
calcineurin = calcineurin (Homo sapiens, UniProt P62937+P63098+Q08209)
cyclophilin A (CypA) = cyclophilin A (CypA) (Homo sapiens, UniProt P62937); test: PPIase inhibition; format: biochemical; settings: PPIase assay, Table S2
Protocol: From the activity against the inhibitor concentrations, the IC50 and the K i value were determined with nonlinear curve fitting according to the models of Morrison^[ [41] ^] and Murphy.^[ [42] ^]

complement system = test: Complement activation in whole blood with zymosan (C5a ELISA); format: cell-based, human; settings: zymosan 10 µg/mL, 30 min, 37 °C, 4W9A alone and conjugated to cleavage fragment (Figure S4, 10 µmol/L, n = 3)
Protocol: Figure 3 Cleavage of inflammation‐responsive hydrogels in an in vitro inflammation model and assessment of the anti‐inflammatory effects of the released drugs. A) For hydrogel cleavage, isolated polymorphonuclear granulocytes (PMN) are activated with complement‐opsonized zymosan (OPZ) in cell culture media and incubated with the hydrogel over 2 h at 37 °C. The cell‐free supernatant containing the released bioactive is used to test the anti‐inflammatory effect in the corresponding system. B) 4W9A: Measurement of complement activation in whole blood activated with zymosan. C) PMX53: Activation of isolated PMN by zymosan activated serum, measured as CD11b expression (*P < 0.05, **P < 0.01 in t‐test).
The amount of Atto488 released from the hydrogel as a model drug was determined by fluorescence measurement at λ ex. = 485 nm/λ em. = 535 nm against an Atto488 standard. […] Cell activation was determined by flow cytometry using CD11b‐VioBlue staining (Biolegend) for isolated granulocytes and additionally CD14‐APC and CD41a‐FITC (both BD Biosciences, New Jersey, USA) for whole blood samples. Leukocyte elastase and C5a concentrations were determined using the commercial ELISA kits Hycult human elastase ELISA (Hycult Biotech, Uden, Netherlands) and C5a micro ELISA (DRG, Marburg, Germany) according to the manufactures instructions.

leukocyte = tested on: leukocyte; design: method as in PMID 10354404; settings: specific for C5aR1; cited from earlier work
[1] = molecular target: C5a receptor (C5aR1 or CD88); settings: C5a receptor inhibitor; read-out: IC50 of PMX53; cited from earlier work
Excerpt: PMX53 is derived from the C‐terminus of the C5a fragment. Therefore, N‐terminal sequence extension by a glycine spacer and a cysteine group appeared possible without loss of activity.^[ [19], [30] ^] (Table S1, Supporting Information). The obtained peptide was linked to the elastase‐responsive hydrogel platform as an anti‐inflammatory feedback control system. The low IC50 concentration (IC50 = 20 nmol L^−1[ [19] ^]) allowed for a low functionalization degree at the hydrogel of only 2% of the starPEG‐AAPV‐arms.

human leukocyte elastase = test: Inhibition of leukocyte elastase by heparin; format: biochemical; settings: U-shaped, heparin 0.01–5 µg/mL (≈0.002–1 U/mL); 10 nmol/L elastase, 250 µmol/L MeOSuc-Ala-Ala-Pro-Val-pNA, Tris-HCl pH 7.4, 100 mmol/L NaCl, 0.1% BSA, 5 min pre-incubation, 37 °C, 30 min, 405 nm; normalized to control without heparin; mean ± SD of n=2
Protocol: Figure S2: Inhibition of leukocyte elastase by heparin. A concentration of 10 nmol L-1 human leukocyte elastase was used to cleave 250 µmol L -1 chromogenic substrate in the presence of different heparin concentrations. The substrate cleavage was monitored photometrically at a wavelength of 405nm by the release of p- nitroaniline from the chromogenic substrate methoxysuccinyl-Ala-Al a-Pro-V al-pNA over 30 min. Values were normalized to a cont rol sample without heparin; mean ± SD of n=2.
(1 picture or pasted object on this page, not shown here) […]
The enzymatic reaction was evaluated after indicated timepoints by analytical HPLC, followed by integral anal ysis of the peak signals for educt and cleavage products. […]
To evaluate the influence of the hydrogel component heparin on the activity of leukocyte elastase, samples with heparin sodium salt concentrations of 0.001- 1 000µg mL -1 were prepared in 50mmol L -1 Tris-HCl pH 7.4 supplemented with 100mmol L -1 NaCl and 0.1% BSA and pre-incubated with 10nmol L -1 leukocyte elastase for 5 min. Subsequently, the cleavage of 250 µmol L-1 chromogenic substrate MeOSuc-Ala-Ala-Pro-V al-pNA by leukocyte elastase in the presence of the different heparin concentrations was measured as reaction kinetic at 37°C for 30min using the Spark TM 10M multimode microplate reader (Tecan) at 405 nm and c ompared to a cont rol without heparin.

α1‐antitrypsin = settings: cited from earlier work
Excerpt: (§1) The heparin component of the hydrogel matrix provides favorable additional anti‐inflammatory properties and interacts with the cleaving enzyme in different ways: Elastase has an anion binding site, which mediates binding to the DNA in neutrophil extracellular traps (NETs), to heparin and heparan sulfates, and also leads to accumulation at the hydrogel.^[ [21] ^] […] Additionally, direct inhibition of elastase acti ...

elastase = settings: cited from earlier work
Excerpt: as §1

[2] = molecular target: T1, human neutrophil elastase (Homo sapiens, UniProt P08246); test: Enzymatic cleavage of elastase-responsive peptide and PEG-AAPV conjugate; format: biochemical; settings: 7 mmol/L AAPV peptide, 20 nmol/L human neutrophil elastase, PBS pH 7.4, 37 °C, analytical HPLC
T1 construct: purchased Merck/Calbiochem
T1 sequence (P08246 30-267): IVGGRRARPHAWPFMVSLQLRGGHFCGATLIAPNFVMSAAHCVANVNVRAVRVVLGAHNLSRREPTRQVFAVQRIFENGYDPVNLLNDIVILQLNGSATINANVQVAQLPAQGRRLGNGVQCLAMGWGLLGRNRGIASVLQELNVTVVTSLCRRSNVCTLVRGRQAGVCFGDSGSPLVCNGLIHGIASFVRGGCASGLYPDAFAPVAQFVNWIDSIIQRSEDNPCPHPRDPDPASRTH
Protocol: starPEG-peptide conjugate with full starPEG arm saturation by the leukocyte elastas e responsive AAPV peptide was added to the reaction solution in 4-fold excess, to finally result […]
The reaction mixture was directly used for hydrogel format ion.
S1.3. Supplement –Basic analysis
Enzymatic clea vage of el astase- responsive peptide and PEG-AAPV conjug ate To analyze leuko cyte elastase mediated hydrolysis of the responsive peptide and the corresponding conjugate, 7 mmol L -1 AAPV peptide or 0.7 mmol L -1 starPEG-AAPV conjugate w er e incub ated with 20 nmol L -1 human neutrophil el astase in PBS, pH 7.4 at 37°C.
The enzymatic reaction was evaluated after indicated timepoints by analytical HPLC, followed by integral anal ysis of the peak signals for educt and cleavage products.
Inhibition of leukocyte el astaseby heparin
To evaluate the influence of the hydrogel component heparin on the activity of leukocyte elastase, samples with heparin sodium salt concentrations of 0.001- 1 000µg mL -1 were prepared in 50mmol L -1 Tris-HCl pH 7.4 supplemented with 100mmol L -1 NaCl and 0.1% BSA and pre-incubated with 10nmol L -1 leukocyte elastase for 5 min. […]

extracellular CypA = settings: cited from earlier work

Sequence of calcineurin (P63098 whole entry, other chains not shown): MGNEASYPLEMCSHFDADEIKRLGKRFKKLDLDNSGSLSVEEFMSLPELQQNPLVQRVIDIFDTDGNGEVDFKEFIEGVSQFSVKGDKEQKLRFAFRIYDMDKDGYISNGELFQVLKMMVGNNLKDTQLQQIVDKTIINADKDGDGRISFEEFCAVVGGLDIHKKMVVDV
Sequence of calcineurin (P62937 whole entry, other chains not shown): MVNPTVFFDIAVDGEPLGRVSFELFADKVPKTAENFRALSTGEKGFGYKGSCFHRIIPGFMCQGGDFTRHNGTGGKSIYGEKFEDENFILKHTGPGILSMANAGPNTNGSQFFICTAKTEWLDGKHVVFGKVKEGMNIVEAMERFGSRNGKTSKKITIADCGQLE
Sequence of cyclophilin A (CypA) (P62937 whole entry): as the sequence (P62937 whole entry, other chains not shown) above

Compound: CC[C@@H]1NC(=O)[C@H]([C@H](O)[C@H](C)Cc2nc3cc(C(=O)N[C@H](CCC(=O)O)C(=O)N[C@H](CCC(=O)O)C(=O)N[C@H](CCC(=O)O)C(=O)N[C@H](CCC(=O)O)C(=O)N[C@H](CCC(=O)O)C(=O)N[C@H](CCC(=O)O)C(=O)NCC(=O)N[C@@H](CCCCN)C(=O)NCC(=O)N[C@@H](C)C(=O)N[C@@H](C)C(=O)N4CCC[C@H]4C(=O)N[C@H](C(=O)NCC(=O)NCC(=O)N[C@@H](CS)C(N)=O)C(C)C)ccc3[nH]2)N(C)C(=O)[C@H](C(C)C)N(C)C(=O)[C@H](CC(C)C)N(C)C(=O)[C@H](CC(C)C)N(C)C(=O)[C@@H](C)NC(=O)[C@H](C)NC(=O)[C@H](CC(C)C)N(C)C(=O)[C@H](C(C)C)NC(=O)[C@H](CC(C)C)N(C)C(=O)CN(C)C1=O [MM623]
- calcineurin: concentration up to which no inhibition was found (calcineurin): ≥ 20 µmol/L
- CypA inhibition compared with MM284 (cyclophilin A (CypA)): comparable to MM284

Compound: Mal-l[CVWQDWGAHRC]-T-CONH2 (disulfide) [4W9A]
- inhibitor concentration that should be exceeded for complement inhibition (complement system): > 2 µmol/L

Compound: PMX53
- effect on leukocyte stimulation by cytokines, leukotriene B4, endotoxins, or formylated peptides (leukocyte): has no effect on leukocyte stimulation by cytokines, leukotriene B4, endotoxins, or formylated peptides
- IC50 [1]: 0.02 µM

- suppression of elastase activity to (residual activity) (human leukocyte elastase): about 50%
Compound: heparin
- α1-antitrypsin activity (α1‐antitrypsin): decreases the activity of α1‐antitrypsin
- elastase activity inhibition by heparin binding (elastase): direct inhibition of elastase activity by heparin binding has been reported

- cleavage rate of the free peptide by elastase [2]: 0.36 s⁻¹
Compound: H2N-GWGAAPV-↑-RGGCG-CONH2

Compound: CC[C@@H]1NC(=O)[C@H]([C@H](O)[C@H](C)Cc2nc3cc(C(=O)O)ccc3[nH]2)N(C)C(=O)[C@H](C(C)C)N(C)C(=O)[C@H](CC(C)C)N(C)C(=O)[C@H](CC(C)C)N(C)C(=O)[C@@H](C)NC(=O)[C@H](C)NC(=O)[C@H](CC(C)C)N(C)C(=O)[C@H](C(C)C)NC(=O)[C@H](CC(C)C)N(C)C(=O)CN(C)C1=O [MM284]
- extracellular CypA inhibition / immunosuppression (extracellular CypA): inhibits extracellular CypA, providing anti‐inflammatory without immunosuppressive activity
- calcineurin: concentration up to which no inhibition was found (calcineurin): ≥ 15 µmol/L
